Reference: publication PMC4552745, “Novel Gallate Triphenylphosphonium Derivatives with Potent Antichagasic Activity” (PLoS ONE, 2015)

Columns and labels:
[1] = system: T. cruzi trypomastigotes (Y strain); test: MTT reduction viability assay on isolated trypomastigotes; assay type: cell-based, Trypanosoma cruzi; conditions: for EC50: Trypanosoma cruzi, Y strain, 24 hours exposure, MTT assay, mean ± SD, read-out: EC50 T. cruzi trypomastigote; for Selectivity index (VERO/T. cruzi): ratio of EC50 VERO cells to EC50 T. cruzi trypomastigote
Procedure: (§1) Trypomastigotes (Y strain, DTU T. cruzi II) were obtained from infected VERO cells (Chlorocebus sabaeus kidney fibroblasts obtained from ATCC, ATCC number: CCL-81). The cells were exposed to trypomastigotes (Y strain) at a 3:1 density (trypomastigote:cell). The trypomastigotes were allowed to infect the cells for 24 h, and the supernatant was then extracted. The trypomastigotes were released from VERO cells at 4 days after infection. The parasites were harvested and collected for viability assays. The effect of the drugs on parasite viability was evaluated using the tetrazolium salt (MTT) reduction assay. […] Alternatively, VERO cells attached to the surface of 96-well plates were washed and incubated with MTT (5 mg/mL). After incubation for 4 h at 37°C, the generated formazan crystals were dissolved with 100 μL of 10% (w/v) sodium dodecyl sulfate (SDS) in 0.01 M HCl. The plates were then incubated overnight at 37°C, and the optical density (OD) was determined using a microplate reader (Labsystems Multiskan MS, Finland) at 570 nm. Under these conditions, the OD is directly proportional to the number of viable cells in each well [33, 34]. All of the experiments were performed at least three times. […] The data from each experiment were plotted using the formazan absorbance versus the log of the concentration, and the plot was fitted to the dose-response (four-parameters) equation using the software Graph Pad Prism V5.0, obtaining the EC50 value per drug and per experiment. The data are expressed as the mean ± DS of the EC50s obtained from each experiment.

[2] = system: VERO cells; test: MTT reduction viability assay on VERO cells; assay type: cell-based; conditions: Chlorocebus sabaeus, 24 hours exposure, mean ± SD
Procedure: as §1, with “The” for “Trypomastigotes (Y strain, DTU T. cruzi II) were obtained from infected VERO cells (Chlorocebus sabaeus kidney fibroblasts obtained from ATCC, ATCC number: CCL-81). The cells were exposed to trypomastigotes (Y strain) at a 3:1 density (trypomastigote:cell). The trypomastigotes were allowed to infect the cells for 24 h, and the supernatant was then extracted. The trypomastigotes were released from VERO cells at 4 days after infection. The parasites were harvested and collected for viability assays. The”

[3] = system: T. cruzi intracellular amastigotes in VERO cells; test: DAPI staining and intracellular amastigote quantification in infected VERO cells; assay type: cell-based, Trypanosoma cruzi; conditions: 1 μM, 48 hours, control 12.9 ± 2.2
Procedure: VERO (Chlorocebus sabaeus kidney fibroblasts, ATCC number: CCL-81) cells were exposed to T. cruzi trypomastigotes (Y strain) at a 5:1 ratio (trypomastigotes:cells) for 24 hours. The cells were then washed and treated with different compounds, at 0.1 and 1 μM, for 48 hours. The cells were washed and fixed in cold methanol (70%) overnight; the fixed cells were washed, and 1 mL of PBS (pH 7.4) was added. The DNA was stained with DAPI (NucBlue, Molecular Probes, USA) following the manufacturer’s instructions. The cells were photographed using a Nikon Eclipse 400 fluorescence microscope at 358 nm (excitation) and 461 nm (emission). Five images were obtained per well, and each picture was analyzed by two independent researchers.

[4] = system: T. cruzi trypomastigotes mitochondrial transmembrane potential (ΔΨm); test: Mitochondrial membrane potential assessment by JC-1; assay type: cell-based, Trypanosoma cruzi; conditions: 1 μM, 2 hours, Fig 5A bottom panel; FCCP 100 μM positive control
Procedure: For the determination of mitochondrial membrane potential by JC-1, we adapted the method described by Cossariza and Savioli (2001). In total, 5 x 10^6 trypomastigotes were seeded in 24-well plates in 1 mL of RPMI medium without FBS. The parasites were exposed to 0.1 or 1 μM of the different TPP^+ derivatives for 2 hours; alternatively, the parasites were exposed to 100 μM FCCP (Sigma Aldrich, USA) for 15 min as a positive control of the uncoupling of mitochondrial respiration. The cells were then washed with 500 μL of PBS and centrifuged at 1500 x g for 5 min. The parasites were then resuspended in 1 mL of PBS at 37°C. JC-1 (Molecular Probes, Applied Biosytems, USA) 1 mg/mL in DMSO was added at a final concentration of 5 μg/mL, and the mixtures were incubated for 15 min at 37°C in the dark. Next, the samples were centrifuged at 1500 x g for 5 min, and the supernatants, which contained unincorporated JC-1, were discarded. The pellet was suspended in PBS (1 mL), and fluorescence was measured using a FACSAria-III flow cytometer (BD Biosciences, USA). We used 488 nm as the excitation wavelength; the emission of JC-1 monomers was detected using the FITC filter (530/30), and the JC-1 aggregates were detected using the PE filter (585/42). Each measurement involved 5,000 events. The data were analyzed using FACSDiva 6.1 software.

[5] = system: T. cruzi trypomastigotes (Y strain) mitochondrial permeability transition pore; test: Mitochondrial permeability transition pore opening (calcein AM / CoCl2); assay type: cell-based, Trypanosoma cruzi; conditions: 1 hour, Fig 6B
Procedure: The opening of mitochondrial permeability transition pores was assessed using the calcein AM probe, adapting the method described by Huang et al (2014). Calcein-AM is a lipophilic probe that can enter the cell, including the mitochondria, and is then cleaved by cellular esterases, releasing the fluorescent probe calcein. T. cruzi trypomastigotes (Y strain, 5 x 10^6 parasites/mL) were stained with 100 nM calcein AM (Molecular Probes, Applied Biosytems, USA) and incubated at 37°C for 15 min in the presence of […] of CoCl2 to quench the cytosolic fluorescence of calcein. Then, the parasites were washed with PBS and resuspended in RPMI medium, without phenol red, supplemented with 0.3 mM of Ca^+2. The parasites were then seeded in 24-well plates and exposed to the different compounds (TPP^+-C8, TPP^+-C10, TPP^+-C11, and TPP^+-C12) at 1 or 5 μM for 1 hour. As a positive control, one group was exposed to ionomycin (0.5 μM). The samples were measured using a FACS Aria III flow cytometer (BD Biosciences, USA) with the 494/517 filter to detect calcein fluorescence. For every measurement, 5,000 events were recorded. The raw flow cytometry data were analyzed using FACSDiva 6.1 software (BD Biosciences). The results were analyzed using the median fluorescence intensity (MFI) from the frequency histograms. Thus, we used the median intensity of the control group (parasites incubated with calcein AM and CoCl2) to establish 100% of mitochondrial fluorescence, thereby establishing percent ratios between the treatment groups and the control.

Structure (SMILES)	EC50 [1]	Selectivity index (VERO/T. cruzi) [1]	EC50 [2]	number of amastigotes per infected cell [3]	JC-1 red fluorescence (aggregates) [4]	mitochondrial calcein fluorescence (median fluorescence intensity) ([5]; 1 μM)	mitochondrial calcein fluorescence (median fluorescence intensity) ([5]; 5 μM)
O=C(OCCCCCCCCCCCC[P+](c1ccccc1)(c1ccccc1)c1ccccc1)c1cc(O)c(O)c(O)c1.[Br-] [TPP^+-C12, triphenyl(12-((3,4,5-trihydroxybenzoyl)oxy)-dodecyl) phosphonium bromide]	1 ± 0.7 µM	10.9	10.9 ± 2.4 µM	2.0 ± 0.7	induced mitochondrial changes, though to a lower extent than FCCP	29 % of the control	20 % of the control
O=C(OCCCCCCCCCC[P+](c1ccccc1)(c1ccccc1)c1ccccc1)c1cc(O)c(O)c(O)c1.[Br-] [TPP^+-C10, triphenyl(10-((3,4,5-trihydroxybenzoyl)oxy)-decyl) phosphonium bromide]	1 ± 0.6 µM	11.3	11.3 ± 0.1 µM	2.5 ± 1.1	induced mitochondrial changes, though to a lower extent than FCCP	–	22 % of the control
